Measurements taken from article PMC7822874, “Chemoprotective antimalarials identified through quantitative high-throughput screening of Plasmodium blood and liver stage parasites” (Scientific Reports, 2021).
Several values for one entry are separate records, joined by “and”; a condition that tells them apart may be missing. Identical values can stand only once. Like-named read-outs stand apart in the source and are kept apart here.

Legend:
[1] = tested on: P. falciparum Dd2 Cytb F123L; experiment: SYBR Green ABS proliferation assay, NCGC00473217 selected clone G08; assay type: cell-based, Plasmodium falciparum; design: log AC50, mean: unit: log10(M); settings: for AC50: Plasmodium falciparum
How it was run: (§1)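 Drug-selected Dd2 clones bearing the cytochrome b mutation were cultured at 37 °C under 5% CO2, 5% O2, 90% N2. Growth was read at 72 h by SYBR Green-I fluorescence, normalized to controls as percent response.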

[2] = tested on: P. falciparum Dd2 (clone B2) asexual blood stage parasites; experiment: P. falciparum Dd2 asexual blood stage SYBR Green-I 72 h proliferation assay (qHTS); assay type: cell-based, Plasmodium falciparum; settings: Plasmodium falciparum, DD2, Dd2 parental; Hill fit, averaged from three independent replicates; top concentration 29 µM; read-out: Average AC50 (Log[M]), Dd2 (converted)
[3] = tested on: P. falciparum Dd2 Cytb A122D; experiment: SYBR Green ABS proliferation assay, NCGC00473217 selected clone F12; assay type: cell-based, Plasmodium falciparum; design: log AC50, mean: unit: Log[M]; settings: for AC50: Plasmodium falciparum
How it was run: as §1

[4] = tested on: P. falciparum Dd2 Cytb V259L; experiment: SYBR Green ABS proliferation assay, NCGC00473217 selected clone F06; assay type: cell-based, Plasmodium falciparum; design: log AC50, mean: unit: log M; settings: for AC50: Plasmodium falciparum
How it was run: as §1

[5] = tested on: P. falciparum Dd2 Cytb G131S; experiment: SYBR Green ABS proliferation assay, NCGC00374598 selected clone C11; assay type: cell-based, Plasmodium falciparum; settings: Plasmodium falciparum
How it was run: as §1

[6] = tested on: P. berghei-ANKA-GFP-LucCON liver stage parasites in HepG2-A16-CD81EGFP cells; experiment: P. berghei liver stage Pb-Luc assay, Method 1 (UCSD, 1536-well); assay type: cell-based, Plasmodium berghei; settings: Method 1; Decrease = decreasing P. berghei viability with dose, Increase = increasing signal, Inactive = no dose response
[7] = tested on: T1, Plasmodium falciparum Dd2-attB-ScDHODH (transgenic line expressing yeast DHODH), asexual blood stages; experiment: organism not typed; design: replicate k of 3 (each line is one of three independent assays; the three lines of one compound and parasite line follow each other); settings: 72 h, n = 1
T1 construct: Dd2-attB-ScDHODH, the transgenic line that expresses yeast DHODH
How it was run: (§2)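 We compare activity in parasites carrying fumarate-using yeast DHODH with that in the parental line; mETC or parasite DHODH inhibitors are bypassed by this enzyme. Data come from three independent assays, analysed by two-sided Student's t-tests.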

[8] = tested on: luciferase-expressing P. berghei liver stage parasites in HepG2 cells; experiment: Inhibition of liver-stage development assay (ILSDA), Method 2 (WRAIR, 96-well); assay type: cell-based, Plasmodium berghei; settings: for AC50: Plasmodium berghei; for Activity direction (Decrease / Inactive): P. berghei liver stage
[9] = tested on: Plasmodium falciparum Dd2 asexual blood stage parasites; experiment: microbe, parasite or virus in culture; design: species or system Plasmodium falciparum Dd2 in human erythrocytes; single determination (one 11-point concentration-response curve); settings: Plasmodium falciparum, DD2, Erythrocyte, 72 h; read-out: AC50
[10] = tested on: T2, Plasmodium falciparum Dd2-attB (parental line), asexual blood stages; experiment: microbe, parasite or virus in culture; design: replicate k of 3 (each line is one of three independent assays; the three lines of one compound and parasite line follow each other); settings: n = 1; for Individual replicates / Log AC50 (M): 72 h; for AC50: Plasmodium falciparum, DD2, 72 h, read-out: Individual replicates / Log AC50 (converted)
T2 construct: Dd2-attB, the isogenic parental line
How it was run: as §2

[11] = DD2, […], averaged from three independent replicates, top concentration 29 µM, read-out: Average AC50 (Log[M]), NCGC00473217 clone G08 (Cytb F123L) (converted)
[12] = DD2, […], averaged from three independent replicates, top concentration 29 µM, read-out: Average AC50 (Log[M]), NCGC00473217 clone F12 (Cytb A122D) (converted)
[13] = DD2, […], averaged from three independent replicates, top concentration 29 µM, read-out: Average AC50 (Log[M]), NCGC00473217 clone F06 (Cytb V259L) (converted)
[14] = DD2, […], averaged from three independent replicates, top concentration 29 µM, read-out: Average AC50 (Log[M]), NCGC00374598 clone C11 (Cytb G131S) (converted)
[15] = DD2, cytochrome b mutant line, fifth value triple, c15, […], read-out: log AC50, mean (converted)
[16] = DD2, cytochrome b mutant line, fourth value triple, c12, […], read-out: log AC50, mean (converted)
[17] = DD2, cytochrome b mutant line, third value triple, c9, […], read-out: log AC50, mean (converted)
[18] = DD2, cytochrome b mutant line, second value triple, c6, […], read-out: log AC50, mean (converted)

SMILES	AC50 [1, 11] [M]	AC50 [2] [M]	AC50 [3, 12] [M]	AC50 [4, 13] [M]	AC50 [5, 14] [M]	AC50 [1, 15] [M]	AC50 [3, 16] [M]	AC50 [4, 17] [M]	AC50 [5, 18] [M]	AC50 [9] [µM]	Activity direction (Decrease / Inactive) ([8]; Method 2, dose response)	other results
CCCN1C(CC(C)C)=N[S+](=O)([O-])c2cc(NC(=O)Nc3ccccc3)ccc21 [NCGC00521878-01]	1.59e-05	3.56e-06	8.28e-06	1.04e-05	7.96e-06							
CCCN1C(CC(C)C)=N[S+](=O)([O-])c2cc(NC(=O)c3cccc(OC(F)(F)F)c3)ccc21 [NCGC00531537-01]	7.96e-06	1.12e-05	1e-05	3.99e-06	1.12e-05							
CCCN1C(CC(C)C)=N[S+](=O)([O-])c2cc(NC(=O)c3c(F)cccc3F)ccc21 [NCGC00531536-01]	5.64e-06	1.59e-05	1e-05	1.22e-05	1.22e-05							
CC(=O)Nc1ccc(CN2CCc3nc(C(C)C)nc(-c4ccc(Cl)cc4)c3CC2)cc1 [NCGC00374598-01]						7.78e-07	3.35e-06	4.91e-06	4.91e-06	2.66		Max Resp (signal direction of the dose response) [6]: Decrease; Individual replicates / Log AC50 (M) [7]: -5.1486 Log AC50 (M) and -4.9986 Log AC50 (M) and -5.3986 Log AC50 (M); Max Resp (signal direction of the dose response) ([8]; Method 2, Decrease = decreasing P. berghei viability with dose, Increase = increasing signal, Inactive = no dose response): Decrease; AC50 ([8]; HepG2, Method 2, Hill fit, 50% of maximum activity response, read-out: AC50): 0.501 µM; AC50 ([8]; HepG2, Method 2, log10 of molar AC50 from Hill fit, read-out: Log AC50 (converted)): 0.501 µM; Individual replicates / Log AC50 (M) [10]: -5.6986 Log AC50 (M) and -5.7986 Log AC50 (M); AC50 [10]: 1.26 µM
CC(C)CC1=N[S+](=O)([O-])c2cc(NC(=O)c3ccco3)ccc2N1C [NCGC00510958-01]	7.96e-07	5.32e-06	5.02e-06	1.26e-05	2.82e-06							
CCCN1C(CC(C)C)=N[S+](=O)([O-])c2cc(NC(=O)c3cncnc3)ccc21 [NCGC00521134-01]	4.48e-06	8.93e-06	3.77e-06	1.59e-06	4.48e-06							
Oc1ccc(-c2nc(C3CC3)nc3c2CCN(CC2CCCCC2)CC3)cc1 [NCGC00480361-01]									6.43e-06	4.73	Inactive	log AC50, mean ([1]; cytochrome b mutant line, fifth value triple, c15, […]): -5.309; Individual replicates / Log AC50 (M) [7]: -5.2486 Log AC50 (M) and -5.1486 Log AC50 (M); log AC50, mean ([3]; cytochrome b mutant line, fourth value triple, c12, […]): -5.009; log AC50, mean ([4]; cytochrome b mutant line, third value triple, c9, […]): -5.075; Individual replicates / Log AC50 (M) [10]: -5.4486 Log AC50 (M) and -5.3986 Log AC50 (M); AC50 [10]: 4.48 µM
O=c1[nH]c(N2CCOCC2)nc2c1CCN(Cc1cc(F)c(F)cc1F)CC2 [NCGC00440659-01]						4.91e-06	1.74e-05	1.81e-05	1.14e-05	15	Inactive	
CCCN1C(c2ccccc2)=NS(=O)(=O)c2cc(NC(=O)c3ccc(F)cc3)ccc21 [NCGC00532331-01]						3.3e-06	1.85e-06	2.33e-06	7.1e-07		Decrease	AC50 ([8]; HepG2, P. berghei liver stage, Method 2, dose response, read-out: AC50): 17.8 µM; AC50 ([8]; HepG2, P. berghei liver stage, Method 2, dose response, read-out: Log AC50 (converted)): 17.8 µM
O=[S+]([O-])(c1cccs1)N1CCc2nc(C3CC3)nc(-c3ccc(Cl)cc3)c2CC1 [NCGC00476969-01]						1.23e-05	1.38e-05	1.19e-05	7.78e-06		Inactive	
CCc1nc2c(c(-c3ccc(O)cc3)n1)CCN(Cc1ccc(OC(F)(F)F)cc1)CC2 [NCGC00480301-01]						7.78e-06	6.18e-06	5.73e-06	5.11e-06	1.5	Inactive	
